Test results from publication PMC7679134, “Probing the ionotropic activity of glutamate GluD2 receptor in HEK cells with genetically-engineered photopharmacology” (eLife, 2020).
Substitutions are numbered along the chain they refer to.

Legend:
Format in all cases: cell-based
[1] = target: T1, GluD2 (Mus musculus, UniProt Q61625, A654T/Q666C); assay: whole-cell patch-clamp photoswitching after covalent labeling
T1 construct: gene Grid2; pcDNA3-GluD2 expressed in HEK tsA201 cells
T1 sequence (Q61625 24-1007 A654T/Q666C): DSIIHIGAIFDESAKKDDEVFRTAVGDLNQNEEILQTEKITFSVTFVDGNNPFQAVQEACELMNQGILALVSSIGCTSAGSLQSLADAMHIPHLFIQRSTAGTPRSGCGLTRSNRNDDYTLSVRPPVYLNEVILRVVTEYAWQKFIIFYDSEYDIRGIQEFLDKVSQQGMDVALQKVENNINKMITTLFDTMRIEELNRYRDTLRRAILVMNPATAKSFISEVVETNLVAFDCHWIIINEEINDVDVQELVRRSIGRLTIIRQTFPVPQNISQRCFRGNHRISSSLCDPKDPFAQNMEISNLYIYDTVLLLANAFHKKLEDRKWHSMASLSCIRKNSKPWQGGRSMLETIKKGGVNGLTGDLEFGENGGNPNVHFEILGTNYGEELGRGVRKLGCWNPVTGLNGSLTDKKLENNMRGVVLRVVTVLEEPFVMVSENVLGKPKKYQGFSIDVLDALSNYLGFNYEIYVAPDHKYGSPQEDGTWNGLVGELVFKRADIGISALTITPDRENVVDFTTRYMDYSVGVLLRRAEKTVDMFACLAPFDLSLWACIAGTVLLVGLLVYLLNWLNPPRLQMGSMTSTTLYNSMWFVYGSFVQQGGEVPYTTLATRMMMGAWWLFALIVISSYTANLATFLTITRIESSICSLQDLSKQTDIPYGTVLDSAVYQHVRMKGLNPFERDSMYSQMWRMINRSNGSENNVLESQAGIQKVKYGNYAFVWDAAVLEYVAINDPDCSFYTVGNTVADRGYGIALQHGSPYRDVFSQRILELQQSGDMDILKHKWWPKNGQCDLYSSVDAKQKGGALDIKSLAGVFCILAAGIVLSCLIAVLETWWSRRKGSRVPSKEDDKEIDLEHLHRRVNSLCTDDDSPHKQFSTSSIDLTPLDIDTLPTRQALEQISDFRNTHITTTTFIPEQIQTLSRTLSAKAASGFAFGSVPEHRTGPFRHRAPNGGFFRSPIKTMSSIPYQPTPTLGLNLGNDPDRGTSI

[2] = target: T2, GluD2 (Mus musculus, UniProt Q61625, A654T/Q674C); assay: as above
T2 construct: gene Grid2; pcDNA3-GluD2 expressed in HEK tsA201 cells
T2 sequence (Q61625 24-1007 A654T/Q674C): T1 sequence (Q61625 24-1007 A654T/Q666C) with C643Q, Q651C

[3] = target: T3, GluD2 (Mus musculus, UniProt Q61625, A654T/D670C); assay: as above
T3 construct: gene Grid2; pcDNA3-GluD2 expressed in HEK tsA201 cells
T3 sequence (Q61625 24-1007 A654T/D670C): T1 sequence (Q61625 24-1007 A654T/Q666C) with C643Q, D647C

[4] = target: T4, GluD2 (Mus musculus, UniProt Q61625, I677C); assay: patch-clamp of DHPG-induced current under […] vs […] nm light; WT control insensitive
T4 construct: gene Grid2; non-Lurcher GluD2 (LiGluD2) co-expressed with mGlu1b in HEK tsA201 cells
T4 sequence (Q61625 24-1007 I677C): T1 sequence (Q61625 24-1007 A654T/Q666C) with T631A, C643Q, I654C

[5] = target: T5, GluD2 (Mus musculus, UniProt Q61625, A654T/I677C); assay: whole-cell patch-clamp dose-response ([…]) under […] nm light; […] under […] nm
T5 construct: gene Grid2; pcDNA3-GluD2 expressed in HEK tsA201 cells, conjugated with MAGu
T5 sequence (Q61625 24-1007 A654T/I677C): T1 sequence (Q61625 24-1007 A654T/Q666C) with C643Q, I654C

SMILES | % photoswitching (relative to pentamidine block) [1] | % photoswitching (relative to pentamidine block) [2] | % photoswitching (relative to pentamidine block) [3] | % reduction of DHPG-induced current (535 vs 380 nm) [4] | IC50 [5] [µM]
N=C(N)NCC(=O)Nc1ccc(/N=N/c2ccc(NC(=O)CCN3C(=O)C=CC3=O)cc2)cc1 [MAGu] | 15.5 % photoswitching (relative to pentamidine block) | 20.5 % photoswitching (relative to pentamidine block) | 14.6 % photoswitching (relative to pentamidine block) | 22.8 % reduction of DHPG-induced current (535 vs 380 nm) | 
N=C(N)c1ccc(OCCCCCOc2ccc(C(=N)N)cc2)cc1 [Pentamidine] |  |  |  |  | 5.1
